Assay results from patent EP2112152A1, “Dihydropteridinones as Plk Inhibitors” (GPC Biotech AG, priority 2008, dated 2009).
Read-outs that look alike come from different tables or passages of the source.

Tests used:
Format in all cases: cell-based
[1] = system: HCT 116; assay: SRB cell proliferation assay, HCT 116; settings: Homo sapiens, 72 hours, SRB assay, read-out: CELLULAR IC50 HCT 116
Description: (§1) We observed the surprising finding that compounds of the invention were useful in inhibiting proliferation of tumor cell lines (see Table 3).
(§2) Cells were exposed to the test compounds at various concentrations appropriate to determine an IC50 for 72 hours. Cell proliferation was measured using the SRB assay according to Shekan et al (J Natl Cancer Inst (1990) 82, 1107-112) in order to estimate the IC50 values shown in Table 3. Briefly, cells were plated in 96 well dishes 24 hours prior to compound addition at the densities specified in Table 5.1. The assay was terminated with the addition of cold TCA to a final concentration of 10% after growth medium has been removed and the plates were incubated over night at 4°C. The plates were then washed 5 times with water and 100µl of a Sulforhodamine B solution (4%) was added to each well. The plates were then incubated for 10 minutes at room temperature before removal of unbound dye by washing with 1% acetic acid. The bound dye was solubilised with 10 mM Trizma base and the absorbance read at OD520.
(§3) Inhibitory activity of the compounds (IC) was calculated as % inhibition of cell proliferation compared to cells treated with the solvent (DMSO).
(§4) Table 8.1: 18-Cell Line Panel

[2] = system: HT-29; assay: SRB cell proliferation assay, HT-29; settings: Homo sapiens, 72 hours, SRB assay, read-out: CELLULAR IC50 HT-29
Description: as §1, §2, §3, §4

[3] = system: IMR-90; assay: SRB cell proliferation assay, IMR-90; settings: Homo sapiens, 72 hours, SRB assay, slow cycling cell line, read-out: CELLULAR IC50 IMR-90
Description: as §1, §2, §3, §4

[4] = target: Plk1 (Homo sapiens, UniProt P53350); assay: Cellular Plk1 kinase activity: nucleophosmin (B23) Ser4 phosphorylation in HCT116 cells (MSD electrochemiluminescence); design: host or cells: HCT116; settings: 100 ng/ml nocodazole, 4 hours after compound addition, read-out: Biochemical IC50 Nucleophosmin assay
Description: We observed the surprising finding that compounds of the invention were able to penetrate cell membranes and retained their activity as Plk1 inhibitors against native Plk1 expressed within living cancer cells.
Cellular Plk1 kinase activity was measured by quantification of nucleophosmin (B23) Ser4 phosphorylation in a cancer cell line. Nucleophosmin (B23) Ser4 is phosphorylated by Plk1, and this phosphorylation can be specifically detected by cross-reactivity of a phospho-Mek1/2 antibody that is able to recognizes a mitotic-specific phosphorylated form of nucleophosmin (B23) in a nocodazole dependent way (Zhang, H., Shi, X., Paddon, H., Hampong, M., Dai, W., and Pelech, S. (2004) B23/Nuleophosmin Serin 4 Phosphorylation Mediates Mitotic Functions of Polo-like Kinase 1. J. Biol. Chem., 279(34), 35726-35734).
Briefly, HCT116 cells (ATCC, Order No. CCL-247) were plated in 96 well dishes 24 hours prior to nocodazole treatment at 25 000 cells per well. Cells were then treated with 100 ng/ml nocodazole (Sigma-Aldrich, # M1404). 20 hours after nocodazole treatment, cells were exposed to the test compounds at various concentrations appropriate to determine an IC50. 4 hours after compound addition, medium was carefully removed and 120 µl of Complete Tris Lysis Buffer (R60TX; MSD, Gaithersburg MD) was added to each well. Samples were then stored at -20°C.
The level of nucleophosmin (B23) Ser4 phosphorylation in these cell lysis samples was estimated by electrochemiluminescence detection using the Meso Scale Discovery ("MSD") Technology Platform (MSD, Gaithersburg MD). The protocol used was as recommended by the manufacturer with the use of a phospho-Mek1/2 antibody (Cell Signalling, #9121) as primary antibody, and is as follows.
The cell lysates were thawed at room temperature and 40 µl were incubated on 96-well MULTI-ARRAY High Bind plates (L11XB; MSD) for 1.5 - 2 hours at room temperature. The supernatants were then removed and 150 µl of a 5% (w/v) solution of Blocker A (R93AA; MSD) in Tris Wash Buffer (R61TX; MSD) were added to each well. The plates were then incubated for 1 hour at room temperature before removal of the Blocker A solution and washed 4 times with 200 µl Tris Wash Buffer. 25 µl primary antibody (anti-phospho-MEK1/2, Cell Signalling, #9121, rabbit polyclonal), diluted 1:250 in a 1% (w/v) solution of Blocker A in Tris Wash Buffer, were added to each well. The plates were then incubated for 1 hour at room temperature before removal of the antibody solution and washed 4 times with 200 µl Tris Wash Buffer. Then, 25 µl of labelled secondary antibody (SULFO-TAG Goat Anti-Rabbit IgGAntibody (R32AB; MSD), diluted 1:500 in a 1% (w/v) solution of Blocker A in Tris Wash Buffer) were added to each well. The plates were then incubated for 1 hour at room temperature before removal of the antibody solution and washed 4 times with 200 µl Tris Wash Buffer. Then, […] of 1x Read Buffer T (R92TC; MSD) were carefully added to each well and the plates were quantitatively detected for each well with a SECTOR™ Imager 6000 (MSD).
Inhibitory activity of the compounds (IC) was calculated as % inhibition of nucleophosmin (B23) Ser4 phosphorylation compared to cells not treated with nocodazole.

Plk1, sequence (P53350 whole entry, species assumed): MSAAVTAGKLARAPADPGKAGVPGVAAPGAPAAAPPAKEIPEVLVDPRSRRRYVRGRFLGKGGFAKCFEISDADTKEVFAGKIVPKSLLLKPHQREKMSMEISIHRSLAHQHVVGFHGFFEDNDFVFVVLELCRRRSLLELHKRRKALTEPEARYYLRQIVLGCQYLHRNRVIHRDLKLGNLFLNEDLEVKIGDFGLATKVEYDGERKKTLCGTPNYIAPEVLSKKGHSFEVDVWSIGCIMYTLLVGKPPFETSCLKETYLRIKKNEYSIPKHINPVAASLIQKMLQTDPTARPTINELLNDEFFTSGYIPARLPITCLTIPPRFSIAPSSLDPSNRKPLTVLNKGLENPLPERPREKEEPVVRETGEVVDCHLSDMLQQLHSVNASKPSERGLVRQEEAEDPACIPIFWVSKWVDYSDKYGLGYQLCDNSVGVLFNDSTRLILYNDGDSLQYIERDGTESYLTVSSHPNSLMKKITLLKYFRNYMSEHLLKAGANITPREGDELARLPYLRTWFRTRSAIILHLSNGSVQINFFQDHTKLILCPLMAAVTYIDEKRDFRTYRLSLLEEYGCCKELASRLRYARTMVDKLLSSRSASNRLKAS

Compound	IC50 ([1]; HCT-116, 72 h)	IC50 ([2]; HT-29, 72 h)	IC50 [3]	IC50 [4]	IC50 ([1]; HCT-116)	IC50 ([2]; HT-29)
CCC1C(=O)N(C)c2cnc(Nc3ccc(C(=O)N[C@H]4CC[C@H](N5CCN(CC6CC6)CC5)CC4)cc3OC)nc2N1N(C)CC1CC1 (relative stereo) [Compound 18, 4-[8-(Cyclopropylmethyl-methyl-amino)-7-ethyl-5-methyl-6-oxo-5,6,7,8-tetrahydro-pteridin-2-ylamino]-N-[trans-4-(4-cyclopropylmethyl-piperazin-1-yl)-cyclohexyl]-3-methoxy-benzamide]	< 1000 nM	< 1000 nM	> 1000 nM	< 500 nM		
CCCN(C)N1c2nc(Nc3ccc(C(=O)NC4CCN(C)CC4)cc3OC)ncc2N(C)C(=O)C1CC (centres unmarked) [Compound 20, 4-[7-Ethyl-5-methyl-8-(methyl-propyl-amino)-6-oxo-5,6,7,8-tetrahydro-pteridin-2-ylamino]-3-methoxy-N-(1-methyl-piperidin-4-yl)-benzamide]	< 1000 nM	< 1000 nM	> 1000 nM	< 100 nM		
CCC1C(=O)N(C)c2cnc(Nc3ccc(C(=O)N[C@H]4CC[C@H](N5CCN(CC6CC6)CC5)CC4)cc3OC)nc2N1NC (relative stereo) [Compound 31, N-[trans-4-(4-Cyclopropylmethyl-piperazin-1-yl)-cyclohexyl]-4-(7-ethyl-5-methyl-8-methylamino-6-oxo-5,6,7,8-tetrahydro-pteridin-2-ylamino)-3-methoxy-benzamide]	< 1000 nM	< 1000 nM	> 1000 nM	< 100 nM		
CCC1C(=O)N(C)c2cnc(Nc3ccc(C(=O)NCC4CCN(CC)CC4)cc3OC)nc2N1N(C)Cc1ccccc1 (centres unmarked) [Compound 21, 4-[8-(Benzyl-methyl-amino)-7-ethyl-5-methyl-6-oxo-5,6,7,8-tetrahydro-pteridin-2-ylamino]-N-(1-ethyl-piperidin-4-ylmethyl)-3-methoxy-benzamide]	< 1000 nM	< 1000 nM	> 1000 nM	< 500 nM		
CCC1C(=O)N(C)c2cnc(Nc3ccc(C(=O)NCC4CCN(CC)CC4)cc3OC)nc2N1N(C)CC(C)C (centres unmarked) [Compound 23, 4-[7-Ethyl-8-(isobutyl-methyl-amino)-5-methyl-6-oxo-5,6,7,8-tetrahydro-pteridin-2-ylamino]-N-(1-ethyl-piperidin-4-ylmethyl)-3-methoxy-benzamide]	< 1000 nM	< 1000 nM	> 1000 nM	< 100 nM		
CCC1C(=O)N(C)c2cnc(Nc3ccc(C(=O)NCC4CCN(CC)CC4)cc3OC)nc2N1N(C)CC1CCC1 (centres unmarked) [Compound 34, 4-[8-(Cyclobutylmethyl-methyl-amino)-7-ethyl-5-methyl-6-oxo-5,6,7,8-tetrahydro-pteridin-2-ylamino]-N-(1-ethyl-piperidin-4-ylmethyl)-3-methoxy-benzamide]	< 1000 nM	< 1000 nM	> 1000 nM	< 500 nM		
CCC1C(=O)N(C)c2cnc(Nc3ccc(C(=O)NC4CCN(C)CC4)cc3OC)nc2N1N(C)Cc1ccccc1 (centres unmarked) [Compound 15, 4-[8-(Benzyl-methyl-amino)-7-ethyl-5-methyl-6-oxo-5,6,7,8-tetrahydro-pteridin-2-ylamino]-3-methoxy-N-(1-methyl-piperidin-4-yl)-benzamide]	< 1000 nM	< 1000 nM	> 1000 nM	< 100 nM		
CCCN(C)N1c2nc(Nc3ccc(C(=O)N[C@H]4CC[C@H](N5CCN(CC6CC6)CC5)CC4)cc3OC)ncc2N(C)C(=O)C1CC (relative stereo) [Compound 19, N-[trans-4-(4-Cyclopropylmethyl-piperazin-1-yl)-cyclohexyl]-4-[7-ethyl-5-methyl-8-(methyl-propyl-amino)-6-oxo-5,6,7,8-tetrahydro-pteridin-2-ylamino]-3-methoxy-benzamide]	< 1000 nM	< 1000 nM	> 1000 nM	< 100 nM		
CCC1C(=O)N(C)c2cnc(Nc3ccc(C(=O)N[C@H]4CC[C@H](N5CCN(CC6CC6)CC5)CC4)cc3OC)nc2N1N(C)CC (relative stereo) [Compound 26, N-[trans-4-(4-Cyclopropylmethyl-piperazin-1-yl)-cyclohexyl]-4-[7-ethyl-8-(ethyl-methyl-amino)-5-methyl-6-oxo-5,6,7,8-tetrahydro-pteridin-2-ylamino]-3-methoxy-benzamide]	< 1000 nM	< 1000 nM	> 1000 nM	< 100 nM		
CCC1C(=O)N(C)c2cnc(Nc3ccc(C(=O)NC4CCN(C(C)C)CC4)cc3OC)nc2N1N(C)C (centres unmarked) [Compound 4, 4-(8-Dimethylamino-7-ethyl-5-methyl-6-oxo-5,6,7,8-tetrahydro-pteridin-2-ylamino)-N-(1-isopropyl-piperidin-4-yl)-3-methoxy-benzamide]	< 1000 nM	< 1000 nM	> 1000 nM	< 100 nM		
CCC1C(=O)N(C)c2cnc(Nc3ccc(C(=O)NCC4CCN(Cc5ccccc5)CC4)cc3OC)nc2N1N(C)C (centres unmarked) [Compound 12, N-(1-Benzyl-piperidin-4-ylmethyl)-4-(8-dimethylamino-7-ethyl-5-methyl-6-oxo-5,6,7,8-tetrahydro-pteridin-2-ylamino)-3-methoxy-benzamide]	< 1000 nM	< 1000 nM	> 1000 nM	< 100 nM		
CCC1C(=O)N(C)c2cnc(Nc3ccc(C(=O)NC4CCN(C)CC4)cc3OC)nc2N1N(C)C (single isomer, unassigned) [Compound 36, 4-(8-dimethylamino-7-ethyl-5-methyl-6-oxo-5,6,7,8-tetrahydro-pteridin-2-ylamino)-3-methoxy-N-(1-methyl-piperidin-4-yl)-benzamide]	> 1000 nM	> 1000 nM	> 1000 nM	> 1000 nM		
CCC1C(=O)N(C)c2cnc(Nc3ccc(C(=O)NCC4CCN(CC)CC4)cc3OC)nc2N1N(C)C (centres unmarked) [Compound 3, 4-(8-Dimethylamino-7-ethyl-5-methyl-6-oxo-5,6,7,8-tetrahydro-pteridin-2-ylamino)-N-(1-ethyl-piperidin-4-ylmethyl)-3-methoxy-benzamide]	< 1000 nM	< 1000 nM	> 1000 nM	< 100 nM		
CCC1C(=O)N(C)c2cnc(Nc3ccc(C(=O)NCc4ccc(N5CCN(C)CC5)cc4)cc3OC)nc2N1N(C)C (centres unmarked) [Compound 11, 4-(8-Dimethylamino-7-ethyl-5-methyl-6-oxo-5,6,7,8-tetrahydro-pteridin-2-ylamino)-3-methoxy-N-[4-(4-methyl-piperazin-1-yl)-benzyl]-benzamide]			> 1000 nM	< 100 nM	< 1000 nM	< 1000 nM
